Source: patent US8575163B2, “Pyrrolopyridinylpyrimidin-2-ylamine derivatives” (Merck Patent GmbH, priority 2009, dated 2013)

What was measured:
[1] = system: PDK1 kinase activity (phospho-T308-PKB) in PC3 cells; experiment: Cellular testing of PDK1 kinase inhibitors in PC3 cells (Luminex, phospho-T308-PKB); type: cell-based; settings: Homo sapiens, PC-3, 0.5 h, 30 min incubation, serum-free, read-out: IC50 PC3 cells [P-PKB T308]
Description: Method for the Cellular Testing of PDK1 Kinase Inhibitors in PC3 Cells.
The cellular assay for the determination of the PDK1 kinase activity is carried out as a Luminex assay in the 96-well format. PC3 cells are shown at 20,000 cells per well in 100 μl of medium (45% of […]/45% of Ham's F12/10% of FCS) and incubated on the following day for 30 min with a serial dilution of the test substance (7 concentrations) under serum-free conditions. The cells are subsequently lysed using 90 μl of lysis buffer (20 mM tris/HCl pH 8.0, 150 mM NaCl, 1% of NP40, 10% of glycerol, 1% of phosphatase inhibitor I, 1% of phosphatase inhibitor II, 0.1% of protease inhibitor cocktail III, 0.01% of benzonase) per well, and the lysates are separated off from insoluble cell constituents by means of centrifugation through a 96-well filter plate (0.65 μm). The lysates are incubated overnight at 4° C. with shaking with Luminex beads to which an anti-total PKB antibody is coupled. The detection is carried out on the following day by addition of a phospho-T308-PKB antibody and a species-specific peroxidase-labelled secondary antibody. The detection of phospho-T308-PKB is carried out by measurement in a Luminex100 instrument by determination of 100 events per cavity in a measurement time of 60 sec. As pharmacological blank, the signals obtained from cells which have been treated with 10 μM staurosporin are subtracted from all other batches. The control value used for maximum phosphorylation of PKB on T308 are the signals from cells which have only been treated with the solvent (0.3% of DMSO). The values of the batches treated with test substance are calculated therefrom as percentage of control, and IC50 values are determined by means of RS1.

[2] = biological target: T1, PDK1 (Homo sapiens, UniProt O15530); experiment: Test for the inhibition of PDK1 (flashplate, 33P-ATP); type: biochemical; settings: His6-PDK1 3.4 nM, 4 μM ATP, 30° C., 60 min
T1 construct: His6 (N)
T1 sequence (O15530 51-556 limits assumed): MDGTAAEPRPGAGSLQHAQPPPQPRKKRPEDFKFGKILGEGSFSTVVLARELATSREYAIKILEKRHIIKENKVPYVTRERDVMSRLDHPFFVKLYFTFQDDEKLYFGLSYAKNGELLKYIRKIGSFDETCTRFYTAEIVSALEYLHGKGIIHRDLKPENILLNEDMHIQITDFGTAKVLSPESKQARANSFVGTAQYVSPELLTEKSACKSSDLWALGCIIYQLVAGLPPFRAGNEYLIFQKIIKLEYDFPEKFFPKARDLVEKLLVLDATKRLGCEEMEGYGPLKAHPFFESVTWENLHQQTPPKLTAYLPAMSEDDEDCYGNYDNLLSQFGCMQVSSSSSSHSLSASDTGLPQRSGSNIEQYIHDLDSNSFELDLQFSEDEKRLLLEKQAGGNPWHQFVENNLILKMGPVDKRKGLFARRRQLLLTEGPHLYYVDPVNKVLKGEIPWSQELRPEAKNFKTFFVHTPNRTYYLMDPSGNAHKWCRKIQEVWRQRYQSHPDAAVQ
How it was run: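 His6-PDK1(1-50) (3.4 nM) and a biotinylated peptide substrate (400 nM) were incubated 60 min at 30° C with 4 μM ATP containing ^33P-ATP and test compound. Incorporated radioactivity was counted after subtracting a 100 nM staurosporine blank and expressed as % of control; IC50 derived from these.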

| SMILES | IC50 [1] [nM] | IC50 [2] [nM] |
| --- | --- | --- |
| COc1ccc(C(C)(O)c2cc(-c3c[nH]c4ncc(-c5cnn(C)c5)cc34)nc(N)n2)cn1 (stereo not drawn) [A112, 1-{2-amino-6-[5-(1-methyl-1H-pyrazol-4-yl)-1H-pyrrolo[2,3-b]pyridin-3-yl]-pyrimidin-4-yl}-1-(6-methoxypyridin-3-yl)ethanol] | 1300 | 120 |
| Cn1cc(-c2cnc3[nH]cc(-c4cc(C(C)(O)c5ccncn5)nc(N)n4)c3c2)cn1 (stereo not drawn) [A113, 1-{2-amino-6-[5-(1-methyl-1H-pyrazol-4-yl)-1H-pyrrolo[2,3-b]pyridin-3-yl]-pyrimidin-4-yl}-1-pyrimidin-4-ylethanol] | 7300 | 31 |
| CCCC(O)(c1cccc(F)c1)c1cc(-c2c[nH]c3ncc(-c4cnn(C)c4)cc23)nc(N)n1 (stereo not drawn) [A116, 1-{2-amino-6-[5-(1-methyl-1H-pyrazol-4-yl)-1H-pyrrolo[2,3-b]pyridin-3-yl]-pyrimidin-4-yl}-1-(3-fluorophenyl)butan-1-ol] | 280 | 44 |
| CCCC(OCOC)(c1cccc(F)c1)c1cc(-c2c[nH]c3ncc(-c4cnn(C)c4)cc23)nc(N)n1 (stereo not drawn) [A117, 4-[1-(3-fluorophenyl)-1-methoxymethoxybutyl]-6-[5-(1-methyl-1H-pyrazol-4-yl)-1H-pyrrolo[2,3-b]pyridin-3-yl]pyrimidin-2-ylamine] | 980 | 450 |
| CCCC(O)(c1cc(-c2c[nH]c3ncc(-c4cnn(C)c4)cc23)nc(N)n1)c1ccccc1F (stereo not drawn) [A118, 1-{2-amino-6-[5-(1-methyl-1H-pyrazol-4-yl)-1H-pyrrolo[2,3-b]pyridin-3-yl]-pyrimidin-4-yl}-1-(2-fluorophenyl)butan-1-ol] | 240 | 29 |
| COCOC(C)(c1cc(-c2c[nH]c3ncc(-c4cnn(C)c4)cc23)nc(N)n1)c1ccccc1F (stereo not drawn) [A119, 4-[1-(2-fluorophenyl)-1-methoxymethoxyethyl]-6-[5-(1-methyl-1H-pyrazol-4-yl)-1H-pyrrolo[2,3-b]pyridin-3-yl]pyrimidin-2-ylamine] | 470 | 36 |

Second part, the molecule after the results:

| IC50 [1] [nM] | IC50 [2] [nM] | SMILES |
| --- | --- | --- |
| 14 | 39 | CC(C)n1cc(-c2cnc3[nH]cc(-c4cc(C(C)(O)c5cccc(F)c5F)nc(N)n4)c3c2)cn1 (stereo not drawn) [A114, 1-{2-amino-6-[5-(1-isopropyl-1H-pyrazol-4-yl)-1H-pyrrolo[2,3-b]pyridin-3-yl]-pyrimidin-4-yl}-1-(2,3-difluorophenyl)ethanol] |
| 110 | 56 | CC(C)C(O)(c1cccc(F)c1)c1cc(-c2c[nH]c3ncc(-c4cnn(C)c4)cc23)nc(N)n1 (stereo not drawn) [A115, 1-{2-amino-6-[5-(1-methyl-1H-pyrazol-4-yl)-1H-pyrrolo[2,3-b]pyridin-3-yl]-pyrimidin-4-yl}-1-(3-fluorophenyl)-2-methylpropan-1-ol] |
| 1100 | 250 | CC(O)(c1cccc(F)c1)c1cc(-c2c[nH]c3ncc(-c4cnn(C(C)(C)C)c4)cc23)nc(N)n1 (stereo not drawn) [A120, 1-{2-amino-6-[5-(1-tert-butyl-1H-pyrazol-4-yl)-1H-pyrrolo[2,3-b]pyridin-3-yl]-pyrimidin-4-yl}-1-(3-fluorophenyl)ethanol] |
